Test results: patent US11471481B2, “Rapid-deposition thin-film forming compositions as effective wound care treatment” (priority 2016, dated 2022)
Read-outs that look alike come from different tables or passages of the source.

Assays:
[1] = test system: human skin fibroblast; conditions: cited from earlier work
[2] = Solubility of PVP-I in different organic solvents; type: physicochemical
Experimental: PVP-I is a polymer complex soluble in water.
To make PVP-I liquid bandage solutions to form rapid-deposition film on skin surface, low boiling-point volatile solvents were selected to study solubility of PVP-I and the time required for the solvent to evaporate to dryness. […] When ethanol alone was the solvent, the drying time was 3 minutes 27 seconds. A mixed solvent has even shorter drying time. Particularly, when the mixed solvent contains acetone and isopentane (which have low boiling points), drying time had been shortened to less than 2 minutes, as the mixed solvents could form azeotropes, which was easier to evaporate. Isopentane had some irritation to skin, and thus its dosage could not be too high. From the study, dosage greater than 15% of isopentane could not shorten the drying time, but instead increase the skin irritation. n-Pentane is not used because of its pungent smell. Therefore, after a preliminary study, ethanol, ethyl acetate, acetone and isopentane alone or combinations were chosen as the solvent phase in this invention.

Povidone iodine [PVP-I]
Fibroblast growth ([1]; 0.01% and 0.025% PVP-I solutions): progressively retarded
Fibroblast growth ([1]; 0.1% and 1% PVP-I solutions): totally inhibited
Solubility of PVP-I in ethanol ([2]; ethanol): readily soluble
Solubility of PVP-I in ethyl acetate, acetone, isopentane and n-pentane ([2]; ethyl acetate, acetone, isopentane, n-pentane): insoluble
